Assay: xn = mol fraction of the nth substance listed
Details: Liquid, Pycnometric method

CCCCBr [1-bromobutane] + O=C=O
Details	mass density [kg/m3]
317.9 K, 12010 kPa, x1 = 0.0989	916
317.9 K, 12060 kPa, x1 = 0.1495	1014
317.9 K, 12520 kPa, x1 = 0.1495	1018
317.9 K, 12610 kPa, x1 = 0.0989	923
317.9 K, 12970 kPa, x1 = 0.1495	1022
317.9 K, 13250 kPa, x1 = 0.0989	930
317.9 K, 13430 kPa, x1 = 0.1495	1026
317.9 K, 13860 kPa, x1 = 0.1495	1029
317.9 K, 13890 kPa, x1 = 0.0989	937
317.9 K, 14380 kPa, x1 = 0.1495	1033
317.9 K, 14630 kPa, x1 = 0.0989	944
317.9 K, 14800 kPa, x1 = 0.1495	1036
317.9 K, 14980 kPa, x1 = 0.0989	947
317.9 K, 15020 kPa, x1 = 0.1495	1038
322.7 K, 8260 kPa, x1 = 0.1495	946
322.7 K, 8470 kPa, x1 = 0.1495	948
322.7 K, 8500 kPa, x1 = 0.0989	818
322.7 K, 8710 kPa, x1 = 0.1495	952
322.7 K, 8720 kPa, x1 = 0.0989	825
322.7 K, 8810 kPa, x1 = 0.0683	731
322.7 K, 8820 kPa, x1 = 0.0245	422
322.7 K, 8840 kPa, x1 = 0.0245	425
322.7 K, 8860 kPa, x1 = 0.0461	629
322.7 K, 8880 kPa, x1 = 0.0245	432
322.7 K, 8880 kPa, x1 = 0.0683	735
322.7 K, 8900 kPa, x1 = 0.0461	632
322.7 K, 8920 kPa, x1 = 0.0245	439
322.7 K, 8920 kPa, x1 = 0.0989	830
322.7 K, 8920 kPa, x1 = 0.1495	954
322.7 K, 8940 kPa, x1 = 0.0461	639
322.7 K, 8960 kPa, x1 = 0.0245	447
322.7 K, 8970 kPa, x1 = 0.0683	740
322.7 K, 8990 kPa, x1 = 0.0461	647
322.7 K, 9000 kPa, x1 = 0.0245	455
322.7 K, 9060 kPa, x1 = 0.0461	655
322.7 K, 9070 kPa, x1 = 0.0245	465
322.7 K, 9070 kPa, x1 = 0.0683	745
322.7 K, 9110 kPa, x1 = 0.0245	473
322.7 K, 9120 kPa, x1 = 0.0461	662
322.7 K, 9160 kPa, x1 = 0.0245	482
322.7 K, 9160 kPa, x1 = 0.0683	750
322.7 K, 9160 kPa, x1 = 0.0989	836
322.7 K, 9160 kPa, x1 = 0.1495	958
322.7 K, 9190 kPa, x1 = 0.0461	671
322.7 K, 9210 kPa, x1 = 0.0245	491
322.7 K, 9250 kPa, x1 = 0.0683	755
322.7 K, 9260 kPa, x1 = 0.0245	500
322.7 K, 9270 kPa, x1 = 0.0461	679
322.7 K, 9320 kPa, x1 = 0.0245	510
322.7 K, 9360 kPa, x1 = 0.0683	759
322.7 K, 9370 kPa, x1 = 0.0245	520
322.7 K, 9380 kPa, x1 = 0.0461	687
322.7 K, 9380 kPa, x1 = 0.1495	961
322.7 K, 9400 kPa, x1 = 0.0989	841
322.7 K, 9430 kPa, x1 = 0.0245	531
322.7 K, 9480 kPa, x1 = 0.0461	696
322.7 K, 9480 kPa, x1 = 0.0683	765
322.7 K, 9500 kPa, x1 = 0.0245	542
322.7 K, 9570 kPa, x1 = 0.0245	553
322.7 K, 9600 kPa, x1 = 0.0683	770
322.7 K, 9610 kPa, x1 = 0.0461	705
322.7 K, 9650 kPa, x1 = 0.0989	847
322.7 K, 9660 kPa, x1 = 0.0245	565
322.7 K, 9670 kPa, x1 = 0.1495	964
322.7 K, 9730 kPa, x1 = 0.0683	775
322.7 K, 9750 kPa, x1 = 0.0245	576
322.7 K, 9810 kPa, x1 = 0.0461	718
322.7 K, 9850 kPa, x1 = 0.0245	590
322.7 K, 9870 kPa, x1 = 0.0683	780
322.7 K, 9910 kPa, x1 = 0.1495	968
322.7 K, 9930 kPa, x1 = 0.0245	599
322.7 K, 9930 kPa, x1 = 0.0989	853
322.7 K, 9990 kPa, x1 = 0.0245	606
322.7 K, 10000 kPa, x1 = 0.0245	608
322.7 K, 10050 kPa, x1 = 0.0683	786
322.7 K, 10090 kPa, x1 = 0.0461	733
322.7 K, 10160 kPa, x1 = 0.1495	971
322.7 K, 10230 kPa, x1 = 0.0683	791
322.7 K, 10240 kPa, x1 = 0.0989	859
322.7 K, 10420 kPa, x1 = 0.0461	748
322.7 K, 10420 kPa, x1 = 0.0683	797
322.7 K, 10440 kPa, x1 = 0.1495	974
322.7 K, 10550 kPa, x1 = 0.0989	870
322.7 K, 10620 kPa, x1 = 0.0683	802
322.7 K, 10760 kPa, x1 = 0.1495	977
322.7 K, 10820 kPa, x1 = 0.0461	764
322.7 K, 10840 kPa, x1 = 0.0683	808
322.7 K, 10910 kPa, x1 = 0.0989	872
322.7 K, 10980 kPa, x1 = 0.1495	980
322.7 K, 11080 kPa, x1 = 0.0683	814
322.7 K, 11270 kPa, x1 = 0.0989	877
322.7 K, 11290 kPa, x1 = 0.0461	779
322.7 K, 11340 kPa, x1 = 0.0683	820
322.7 K, 11370 kPa, x1 = 0.1495	984

From the NIST ThermoML archive (doi:10.1021/je900387e)
